Data set [1] in a line: liver uptake, biliary secretion and metabolism after intravenous administration. Format: in vivo.
The nature of data set [2]: critical micellar pH (CMpH). It counts as physicochemical. The method, then: (§1) were evaluated according to conventional methods. Critical micellar concentration.
Data set [3] in a line: intestinal absorption, biliary recovery and metabolism after intraduodenal administration. Format: in vivo.
A short description of data set [4]: solubility in water. Format: physicochemical. Particulars: for solubility: water.
Data set [5] deals with bile flow and biliary secretion. Briefly: effect on bile flow and biliary lipid secretion when administered i.v. to rat. Format: in vivo. The note with it: for SMAB (mean maximum biliary secretion) / SMFL (mean maximum biliary lipid secretion) / SMVo (mean maximum bile flow) / SMxol (mean maximum biliary lipid secretion): rat, i.v., Table II. The source says:
Effect of 24-ISOP on bile flow and biliary
SVo = mean maximum bile flow.
SM = mean maximum biliary lipid secretion.

Data set [6] deals with bile flow. Kind of data set: choleretic effect after i.v. or i.d. administration. Format: in vivo.
Data set [7] in a line: acidity constant (pKa). It counts as physicochemical. As for the experimental part: as §1
A short description of data set [8]: critical micellar concentration (CMC), detergency. It counts as physicochemical. As for the experimental part: -critical micellar concentration (CMC) or "detergency",
as §1
comparison with UDCA, GUDCA and TUDCA

A short description of data set [9]: lipophilicity (K' from retention times on C18 HPLC). It counts as physicochemical. The note with it: for rK' C-18 (relative values): Table III. An excerpt:
K' = calculated from retention times (t) on C18 HPLC according to
where to = time of unretained solvent, under the following

Where [10] appears, read: Table I, calculated from retention times on C18 HPLC, CH3OH/KH2PO4 0.01 M 130/70 v/v, pH = 7, read-out: K' (converted).

Converted amounts (≈) assume the structure as drawn. “Also recorded” adds a separate entry of the source. Where two headings read alike, the source gives them in different places.

For `C[C@H](CCC(=O)CCC(=O)O)[C@H]1CC[C@H]2[C@@H]3[C@@H](O)C[C@@H]4C[C@H](O)CC[C@]4(C)[C@H]3CC[C@]12C` [Example 24-ISOP, 3α, 7β-dihydroxy-24-oxo-5β-cholan-27-oic acid], in data set [1] (in vivo), the disappearance from bile entry was “disappears from bile with a kinetic similar to conjugate forms of UDCA and faster than UDCA”. In addition, the “kinetic of the biliary secretion” value in [1] (in vivo, iv) is “very fast in comparison with UDCA and more similar to tauroursodeoxycholic acid”. Besides, in data set [1] (intravenous), the metabolites / conjugation result is “no significant metabolites are present” and the recovery in bile entry is “completely recovered in bile with a rapid kinetic”. Besides, in [2], the “critical micellar pH (in words)” value is “low critical micellar pH; also recorded: soluble when present in micellar form at a pH lower than UDCA (low CMpH)”. Moreover, in data set [3] (in vivo), the metabolites entry is given as “no major metabolites are present”. Besides, in [3] (intraduodenal), the recovery in bile result is “significantly higher than that of glycoursodeoxycholic and similar to UDCA and TUDCA”. The concentration in solution in [4] (Solubility) (solubility) was 20 µM (≈ 8.97 µg/mL). Also, in data set [5] (intravenous), the “effect on bile flow (in words)” value was “great effect on bile flow, higher than that of UDCA and its conjugated forms”; the “transport and secretion of cholesterol and phospholipids (in words)” value is listed as “no significative differences”. Further, in [5], the “SMAB (mean maximum biliary secretion)” value was 2.62 µmol/min/kg, the “SMFL (mean maximum biliary lipid secretion)” value (“SMFL” for short) came out at 0.21 µmol/min/kg, the “SMVo (mean maximum bile flow)” value turned out to be 5.22 mL/h/kg and the “SMxol (mean maximum biliary lipid secretion)” value (shortened to “SMxol”) is 0.020 µmol/min/kg. In addition, the choleretic effect entry in [6] is “high choleretic effect, higher than that of UDCA”. In addition, the pKa in data set [7] (pKa value) is 4.2. In addition, in data set [8] (Table I), the CMC was 9 mM. The compound further had a chromatographic logD in data set [9] (c18 hplc, ch3oh/kh2po4, pH 7) of 0.326.
Take `C[C@H](CCC(=O)CCC(=O)O)[C@H]1CC[C@H]2[C@@H]3[C@@H](O)C[C@@H]4C[C@H](O)CC[C@]4(C)[C@H]3C[C@H](O)[C@]12C` [Example 24-PUCA, 3α, 7β, 12α-Trihydroxy-24-oxo-5β-cholan-27-oic acid]: the “critical micellar pH (in words)” value in data set [2] was “low CMpH value”. In data set [4], the “solubility (in words)” value is listed as “very soluble also in protonated form”; the “water solubility relative to UDCA and 24-PUDCA” value is on record as “about 100 times”. This compound also yielded a solubility in [4] (water solubility) of 1800 µM (≈ 836 µg/mL). For the same compound, the “pKa (in words)” value in [7] is “lower to than that of the natural analogues UCA and UDCA and similar to that of 24-PUDCA”. The compound further came in with a pKa in [7] (pKa) of 3.85. In data set [8], the “CMC / detergency (in words)” value is recorded as “mild detergency”. The compound also showed a CMC in [8] (Table III) of 28 mM. In addition, in data set [9], the “lipophilicity (in words)” value was “intermediate between UCA and UDCA”; the “rK' C-18 (relative values)” value is 0,20.
For the compound `C[C@H](CCC(=O)CCC(=O)O)[C@H]1CC[C@H]2[C@@H]3[C@@H](O)C[C@@H]4C[C@H](O)CC[C@]4(C)[C@H]3CC[C@]12C` [Example 24-PUDCA], the concentration in solution in data set [4] (water solubility) (solubility) came to 13 µM (≈ 5.83 µg/mL). In [7] (pKa), this compound returned a pKa of 3.9. This compound registered a CMC in [8] (Table III) of 9 mM. Further, the “rK' C-18 (relative values)” value in data set [9] is reported as 0,44.
As for `C[C@H](CCC(=O)NCC(=O)O)[C@H]1CC[C@H]2[C@@H]3[C@@H](O)C[C@@H]4C[C@H](O)CC[C@]4(C)[C@H]3CC[C@]12C` [GUDCA, glycoursodeoxycholic acid], the “solubility (in words)” value in [4] is “low solubility at low pH”. Besides, the solubility in [4] (Table I, read-out: Solubility) is 3 µM (≈ 1.35 µg/mL). In addition, in data set [5], the “SMAB (mean maximum biliary secretion)” value came out at 2.10 µmol/min/kg, the “SMFL” value is 0.39 µmol/min/kg, the “SMVo (mean maximum bile flow)” value turned out to be 2.4 mL/h/kg and the “SMxol” value was determined as 0.028 µmol/min/kg. The compound also showed a CMC in data set [8] (Table I) of 12 mM. In [9] (setting [10]), the chromatographic logD was 0.0253.
Take `C[C@H](CCC(=O)NCCS(=O)(=O)O)[C@H]1CC[C@H]2[C@@H]3[C@@H](O)C[C@@H]4C[C@H](O)CC[C@]4(C)[C@H]3CC[C@]12C` [TUDCA, tauroursodeoxycholic acid]: in data set [5], the “SMAB (mean maximum biliary secretion)” value came to 3.40 µmol/min/kg, the “SMFL” value was found to be 0.18 µmol/min/kg, the “SMVo (mean maximum bile flow)” value turned out to be 2.16 mL/h/kg and the “SMxol” value is 0.014 µmol/min/kg. The CMC in data set [8] (Table I) was determined as 8 mM. Also, the chromatographic logD in data set [9] (setting [10]) was -0.00877.
`C[C@H](CCC(=O)O)[C@H]1CC[C@H]2[C@@H]3[C@@H](O)C[C@@H]4C[C@H](O)CC[C@]4(C)[C@H]3C[C@H](O)[C@]12C` [UCA, ursocholic] yielded a CMC in data set [8] (Table III) of 60 mM.
With `C[C@H](CCC(=O)O)[C@H]1CC[C@H]2[C@@H]3[C@@H](O)C[C@@H]4C[C@H](O)CC[C@]4(C)[C@H]3CC[C@]12C` [UDCA, ursodeoxycholic, reference compound], the metabolites / conjugation entry in [1] (in vivo, iv) is “completely transformed into its conjugated form, tauroursodexycholic acid and to less extent into glycoursodeoxycholic acid”. For the same compound, in data set [4], the “solubility (in words)” value is given as “low solubility at low pH”. The solubility is 19 µM (≈ 7.46 µg/mL) in data set [4] (Table III, read-out: water solubility) and 9 µM (≈ 3.53 µg/mL) in data set [4] (Table I, read-out: Solubility). Moreover, the “SMAB (mean maximum biliary secretion)” value in [5] amounted to 3.02 µmol/min/kg. Also, the “SMFL” value in [5] worked out at 0.227 µmol/min/kg. The “SMVo (mean maximum bile flow)” value in data set [5] was 3.6 mL/h/kg. Besides, the “SMxol” value in data set [5] amounted to 0.022 µmol/min/kg. Also, the pKa in data set [7] (Acidity constant, read-out: pKa value) amounted to 6; in data set [7] (Table I) it was 5.06; in data set [7] (Table III) it was 5. For the same compound, the CMC in [8] (Table I) and in [8] (Table III) was 19 mM in each case. Besides, the chromatographic logD in data set [9] (setting [10]) was 0.563. In data set [9], the “rK' C-18 (relative values)” value was 0,4.

Source of the values: US5166374A, “Bile acid derivatives, processes for the preparation thereof and pharmaceutical compositions containing them” (Giuliani S.p.A., priority 1989, dated 1992).
